Assay results as given in US9096591B2, “Tetracyclic compounds” (Medivation Technologies, Inc., priority 2007, dated 2015).

Tests used:
[1] = tested on: adrenergic receptors α1D, α2A, α2B; serotonin receptor 5-HT6; dopamine receptor D2L; experiment: Classification of compounds (Type 1-4) from receptor binding and neurite outgrowth
From the text: Compounds of the invention that inhibit binding of a ligand to adrenergic receptors α1D, α2A, α2B and serotonin receptor 5-HT6 by at least about 80% as determined in a suitable assay such as the assays described herein can be classified as Type 1 compounds. […] In one variation, binding of a ligand to serotonin receptor 5-HT7 is at least about 80%. […] Weak inhibition of binding of a ligand to the histamine H1 receptor is permitted as agonists of this receptor have been implicated in stimulating memory as well as weight gain. In one variation, binding to histamine receptor H1 is inhibited by less than about 80%. […] Compounds that inhibit binding of a ligand to the dopamine D2L receptor by at least about 80% as determined in a suitable assay such as the assay described herein can be classified as Type 2 compounds.
In one variation, Type 1 compounds further inhibit binding of a ligand to dopamine receptor D2L by less than about 80% as determined in a suitable assay known in the art such as the assay described herein. […] In one variation, binding of a ligand to serotonin receptor 5-HT7, 5-HT2A and/or 5-HT2C is inhibited by at least about 80% as determined in a suitable assay such as the assays described herein. […] In one variation, binding of a ligand to histamine receptor H1 and/or H2 is inhibited by less than about 80% as determined by a suitable assay known in the art such as the assays described herein.
In one variation, biding to serotonin receptor 5-HT2A is inhibited by at least about 80% as determined in a suitable assay know in the art such as the assay described herein.

[2] = molecular target: T1, human recombinant histamine H1 receptor (Homo sapiens, UniProt P35367); experiment: Histamine H1 radioligand binding ([3H]Pyrilamine); conditions: […] [3H]Pyrilamine, read-out: Histamine Binding H1, percent inhibition of specific binding
T1 construct: expressed in transfected cells; host or cells: CHO cells
Method: To evaluate in radioligand binding assays the activity of compounds of the invention, human recombinant histamine H1 receptor expressed in Chinese hamster ovary (CHO) cells (De Backer M D et al. Biochem. Biophys. Res Comm. 197(3):1601, 1993) in a modified Tris-HCl buffer (50 mM Tris-HCl, pH 7.4, 2 mM MgCl2, 100 mM NaCl, 250 mM Sucrose) were used. […] Non-specific binding was estimated in the presence of 1 μM pyrilamine. Receptor proteins were filtered and washed, the filters were then counted to determine [^3H]pyrilamine specifically bound. […] Biochemical assay results are presented as the percent inhibition of specific binding in Table 5.
To evaluate in radioligand binding assays the activity of compounds of the invention, human recombinant histamine H1 receptor expressed in Chinese hamster ovary (CHO) cells (De Backer, M. D. et al., Biochem. Biophys. Res. Comm. 197(3):1601, 1993) in a modified Tris-HCl buffer (50 mM Tris-HCl, pH 7.4, 2 mM MgCl2, 100 mM NaCl, 250 mM Sucrose) was used. […] Non-specific binding was estimated in the presence of 1 μM pyrilamine. Receptor proteins were filtered and washed, the filters were then counted to determine [^3H]Pyrilamine specifically bound. Compounds were screened at 1 μM, using 1% DMSO as vehicle. Biochemical assay results are presented as the percent inhibition of specific binding in Table 6.

[3] = molecular target: T2, human recombinant histamine H2 receptor (Homo sapiens, UniProt P25021); experiment: Histamine H2 radioligand binding ([125I]Aminopotentidine); conditions: 0.3 μM compound; 0.1 nM [125I]Aminopotentidine; read-out: Histamine Binding H2, percent inhibition of specific binding
T2 construct: expressed in transfected cells; host or cells: CHO-K1 cells
Method: Non-specific binding was estimated in the presence of 3 μM Tiotidine. […] Biochemical assay results are presented as the percent inhibition of specific binding in Table 5.
Non-specific binding was estimated in the presence of 3 μM Tiotidine. […] Compounds were screened at 1 μM, using 1% DMSO as vehicle. Biochemical assay results are presented as the percent inhibition of specific binding in Table 6.

mice = experiment: recognition test of new location of a known object (spatial memory); format: in vivo
[4] = tested on: synaptosomes of cortex of rat brain; experiment: Glutamate-induced 45Ca2+ uptake into synaptosomes; format: biochemical, Wistar rats; conditions: for % Ca of control (control-100%), glutamate-induced 45Ca2+ uptake into synaptosomes: rat cortex synaptosomes
Method: Synaptosomes were obtained from cerebral cortex of newborn (9-10 days) Wistar rats using standard Hajos method. The brain was homogenized with 10 volumes of cooled 0.32 M sucrose at 900 rpm. The homogenate was centrifuged at 1500 g for 10 min. and the resulted supernatant was centrifuged at 10000 g for 20 min. The radioactive label was accumulated by suspension of the synaptosomal P2-fraction in the incubation buffer A having the following composition: 132 mM NaCl, 5 mM KCl, 5 mM HEPES, 10 mM glucose, pH 7.4 (protein concentration of approximately 1.5-2 mg/ml). The mixture was further incubated for 5 min with 200 μM glutamate at 37° C. and then ^45Ca^2+ uptake was stopped by filtration through GF/B filters (Whatman, England) followed by three washes with cold buffer B (145 mM KCl, 10 mM Tris, 5.4 mM Trilon B, pH 7.4). The radioactivity probes were analyzed by fluid scintillation beta-analyzer (TriCarb, Perkin Elmer). All tests were performed in three parallel trials in 2-3 independent experiments. The amount of ^45Ca^2+ uptake was estimated by calculating the difference of radioactive label during the stimulation with glutamate and without the stimulation with agonist.
Specific ^45Ca^2+ uptake was estimated using the following equation: K(43/21)=[(Ca4−Ca3)/(Ca2−Ca1)]100%, where
Ca1—^45Ca^2+ uptake for the Control (without glutamate and the compound tested),
[…] glutamate-induced ^45Ca^2+ uptake (glutamate only),
Ca3—^45Ca^2+ uptake in the presence of the compound tested (without glutamate),
Ca4—^45Ca^2+ uptake in the presence of glutamate and the testing compound.
Statistical analysis of the results was performed using Student's t-test.

T1 sequence (P35367 whole entry): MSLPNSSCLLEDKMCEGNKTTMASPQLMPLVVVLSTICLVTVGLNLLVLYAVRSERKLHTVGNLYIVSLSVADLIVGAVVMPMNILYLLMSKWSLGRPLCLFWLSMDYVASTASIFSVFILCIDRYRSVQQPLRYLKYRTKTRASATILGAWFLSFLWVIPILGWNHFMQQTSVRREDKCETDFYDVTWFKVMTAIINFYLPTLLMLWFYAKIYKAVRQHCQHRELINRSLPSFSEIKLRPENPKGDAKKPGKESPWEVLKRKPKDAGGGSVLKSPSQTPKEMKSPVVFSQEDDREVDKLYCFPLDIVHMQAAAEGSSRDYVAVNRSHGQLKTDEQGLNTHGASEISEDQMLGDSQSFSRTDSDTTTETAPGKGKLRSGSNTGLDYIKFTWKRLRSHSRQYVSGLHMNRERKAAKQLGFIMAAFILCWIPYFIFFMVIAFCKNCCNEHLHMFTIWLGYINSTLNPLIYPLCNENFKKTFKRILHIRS
T2 sequence (P25021 whole entry): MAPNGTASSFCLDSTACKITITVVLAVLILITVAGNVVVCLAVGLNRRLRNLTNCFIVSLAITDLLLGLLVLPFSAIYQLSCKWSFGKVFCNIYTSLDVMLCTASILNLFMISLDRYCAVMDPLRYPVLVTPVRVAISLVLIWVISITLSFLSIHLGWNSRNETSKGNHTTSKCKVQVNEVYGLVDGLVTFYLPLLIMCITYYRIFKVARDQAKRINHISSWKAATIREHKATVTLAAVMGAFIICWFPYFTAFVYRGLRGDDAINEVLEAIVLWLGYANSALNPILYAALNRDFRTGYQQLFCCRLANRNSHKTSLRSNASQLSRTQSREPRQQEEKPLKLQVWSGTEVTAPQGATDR

## Cc1ccc2c(c1)c1c(n2CCc2nc(-c3ccccc3)cs2)CCN(C)C1 [Compound G8-c, 2,8-Dimethyl-5-[2-(4-phenylthiazol-2-yl)ethyl]-2,3,4,5-tetrahydro-1H-pyrido[4,3-b]indole]
other
  melting point: 148.5 to 149 °C

## CN1CCc2c(c3ccccc3n2CCc2noc(-c3ccccc3)n2)C1 [Compound G6-a, 2-Methyl-5-[2-(5-phenyl-1,2,4-oxadiazol-3-yl)ethyl]-2,3,4,5-tetrahydro-1H-pyrido[4,3-b]indole]
other
  melting point: 111 to 112 °C

## Cc1ccc2c(c1)c1c(n2CCc2noc(-c3ccccc3)n2)CCN(C)C1 [Compound G6-c, 2,8-Dimethyl-5-[2-(5-phenyl-1,2,4-oxadiazol-3-yl)ethyl]-2,3,4,5-tetrahydro-1H-pyrido[4,3-b]-indole]
other
  melting point: 120 to 120.5 °C

## CCN1CCc2c(c3cc(C)ccc3n2CC(O)c2ccc(C)cc2)C1 (racemic) [Compound 29, racemic-2-(2-ethyl-1,2,3,4-tetrahydro-8-methylpyrido[4,3-b]indol-5-yl)-1-p-tolylethanol]
[1]
  compound type (classification by receptor binding profile and neurite outgrowth): Type one
[2]; 0.03 μM compound
  inhibition at 0.03 µM: 37%
[2]; 0.1 μM compound
  inhibition at 0.1 µM: 57%
[3]
  inhibition at 0.3 µM: 27%

## CN1CCc2c(c3cc(F)ccc3n2CCc2nc(-c3ccccc3)cs2)C1 [Compound G8-f, 8-Fluoro-2-methyl-5-[2-(4-phenylthiazol-2-yl)ethyl]-2,3,4,5-tetrahydro-1H-pyrido[4,3-b]indole]
other
  melting point: 136.5 to 137 °C

## CN1CCc2c(c3cc(Cl)ccc3n2CCc2noc(-c3ccccc3)n2)C1 [Compound G6-d, 8-Chloro-2-methyl-5-[2-(5-phenyl-1,2,4-oxadiazol-3-yl)ethyl]-2,3,4,5-tetrahydro-1H-pyrido-[4,3-b]indole]
other
  melting point: 122 to 123 °C

## COc1ccc2c(c1)c1c(n2CCc2noc(-c3ccccc3)n2)CCN(C)C1 [Compound G6-b, 8-Methoxy-2-methyl-5-[2-(5-phenyl-1,2,4-oxadiazol-3-yl)ethyl]-2,3,4,5-tetrahydro-1H-pyrido[4,3-b]indole]
other
  melting point: 77.5 to 79 °C

## CN1CCc2c(c3cc(F)ccc3n2CCc2noc(-c3ccccc3)n2)C1 [Compound G6-f, 8-Fluoro-2-methyl-5-[2-(5-phenyl-1,2,4-oxadiazol-3-yl)ethyl]-2,3,4,5-tetrahydro-1H-pyrido-[4,3-b]indole]
other
  melting point: 121.5 to 122.5 °C

## CN1CCc2c(c3cc(F)ccc3n2CCc2n[nH]c(=S)n2C)C1 [Compound G11-c, 5-[2-(8-Fluoro-2-methyl-2,3,4,5-tetrahydro-1H-pyrido[4,3-b]indol-5-yl)ethyl]-4-methyl-2,4-dihydro-1,2,4-triazole-3-thione]
other
  melting point: 215 to 218 °C

## CN1CCc2c(c3cc(Cl)ccc3n2CCc2n[nH]c(=S)n2C)C1 [Compound G11-b, 5-[2-(8-Chloro-2-methyl-2,3,4,5-tetrahydro-1H-pyrido[4,3-b]indol-5-yl)ethyl]-4-methyl-2,4-dihydro-1,2,4-triazole-3-thione]
other
  melting point: 216 to 219 °C

## CN1CCc2c(c3ccccc3n2CCc2nc(-c3ccccc3)cs2)C1 [Compound C1-1]
mice; Dose of Compound 0.05 mg/kg
  Influence on memory in the test recognition new localization of known object: +
mice; Dose of Compound 0.1 mg/kg
  Influence on memory in the test recognition new localization of known object: +
mice; Dose of Compound 0.5 mg/kg
  Influence on memory in the test recognition new localization of known object: −
mice; Dose of Compound 1.0 mg/kg
  Influence on memory in the test recognition new localization of known object: +
mice; comparison of effective doses
  activity on memory compared with dimebon (in words): approximately two times higher
mice; mice, dose 0.05 mg/kg
  time exploring the object in a new location, % of the total time: 61.8±8.4%
  time exploring the object in the known position, % of the total time: 38.2±8.4%
mice; mice, dose 0.1 mg/kg
  time exploring the object in a new location, % of the total time: 56.0±6.9%
  time exploring the object in the known position, % of the total time: 42.7±6.9%
mice; mice, dose 0.5 mg/kg
  effect of the dose on exploration time / memory (in words): disappearance of the stimulating effect on memory
mice; mice, dose 1 mg/kg
  time exploring the object in a new location, % of the total time: 61.5±8.9%
  time exploring the object in the known position, % of the total time: 37.8±8.9%
mice; mice, doses 0.05-1 mg/kg
  overall effect on memory (in words): stimulating effect on memory
[4]
  concentration at which glutamate-induced 45Ca2+ uptake into synaptosomes was increased: 50 to 100 µM
[4]; 0.1-0.5 μM
  inhibition of glutamate-induced 45Ca2+ uptake into synaptosomes: ~13%
[4]; C 50 μM
  glutamate-induced 45Ca2+ uptake into synaptosomes of rat cortex, % Ca of control (control-100%): 126.9%
[4]; compound 0.1 μM
  % Ca of control (control-100%), glutamate-induced 45Ca2+ uptake into synaptosomes: 85.5 ± 5.8%
[4]; compound 0.5 μM
  % Ca of control (control-100%), glutamate-induced 45Ca2+ uptake into synaptosomes: 86.9 ± 4.2%
[4]; compound 1 μM
  % Ca of control (control-100%), glutamate-induced 45Ca2+ uptake into synaptosomes: 100.3 ± 6.5%
[4]; compound 5 μM
  % Ca of control (control-100%), glutamate-induced 45Ca2+ uptake into synaptosomes: 98.8 ± 3.2%
[4]; compound 10 μM
  % Ca of control (control-100%), glutamate-induced 45Ca2+ uptake into synaptosomes: 91 ± 11.9%
[4]; compound 50 μM
  % Ca of control (control-100%), glutamate-induced 45Ca2+ uptake into synaptosomes: 126.9 ± 4.5%
[4]; compound 100 μM
  % Ca of control (control-100%), glutamate-induced 45Ca2+ uptake into synaptosomes: 111.9 ± 11.31%

## COc1ccc2c(c1)c1c(n2CCc2n[nH]c(=S)n2C)CCN(C)C1 [Compound G11-d, 5-[2-(8-Methoxy-2-methyl-2,3,4,5-tetrahydro-1H-pyrido[4,3-b]indol-5-yl)ethyl]-4-methyl-2,4-dihydro-1,2,4-triazole-3-thione]
other
  melting point: 219 to 222 °C

## COc1ccc2c(c1)c1c(n2CCc2nc(-c3ccccc3)cs2)CCN(C)C1 [Compound G8-b, 8-Methoxy-2-methyl-5-[2-(4-phenylthiazol-2-yl)ethyl]-2,3,4,5-tetrahydro-1H-pyrido[4,3-b]indole]
other
  melting point: 135 to 136.5 °C
